Test [1] concerns gastric acid secretion. The experiment in a line: inhibition of secretion of acidic gastric juice in dogs (Pavlov gastric pouch, fed). In kind it is in vivo, dog (beagle). The conditions noted are these: Canis lupus familiaris, po; orally dosed, fed thirty minutes later; read-out: ID50 (dose at which there is obtained a 50% inhibition of the total gastric acid output). How it is done: The procedure for testing the ability of the compounds of the invention to inhibit the secretion of acidic gastric juice in dogs is as follows: A female pure bred beagle (7-10 kg) having Pavlov gastric pouches is fasted overnight with water ad lib. The animal is orally dosed and thirty minutes later it is fed to induce gastric acid secretions. Gastric acid samples are then collected every 15 minutes. The volume of each sample is measured and aliquots are titrated to neutrality with 0.1N NaOH to determine acid concentration.

The subject of test [2] is gastric acid secretion. Briefly: gastric secretion in the rat, modified Shay procedure of pylorus ligation. It is filed as in vivo. As to conditions: intraduodenal, 4 h, i.d., four hours after ligation, read-out: % Inhibition (of acid output). How it is done: The procedure for testing gastric secretion in the rat, a modification of the procedure of Shay et al., Gastroenterology, 26, 906-13 (1954) is carried out as follows: Male Charles River rats weighing 200-300 grams are deprived of food but not water for 24 hours prior to use. Water is, however, withheld during the experiment. The rats are weighed, anesthetized, and the pylorus ligated according to the method of Shay et al. Treatment or vehicle control is then administered interduodenally (i.d.). Rats are housed 2/cage and sacrificed with CO2 four hours after ligation. The stomachs are removed, rinsed, and contents emptied into a graduated centrifuge tube. The tubes are centrifuged for 20 minutes at 2,000 RPM and the volume of gastric juice recorded. Any samples obviously contaminated by feces, food or hemolysis are eliminated. An aliquot of each is frozen for later analysis of Na^+, K^+ and Cl^- concentration. The pH is measured and 1 ml. of gastric juice is titrated with 0.1N NaOH to a pH of 7.0-7.4. Titratable acid output is calculated in microequivalents and the percent inhibition of acid output is calculated as follows: [formula]

For test [3], the target named is H2 histamine receptors (Cavia porcellus, UniProt P47747). The experiment in a line: cell-based. On the set-up: species or system guinea pig. The conditions noted are these: vs histamine dose-response, 32° C., pH 7.4.
Procedure: The guinea pig heart atrium test is carried out as follows:
A guinea pig right atrium is suspended at 1 g. tension (isometric) in a thermostatically controlled (32° C.) tissue bath (10 ml) containing oxygenated (95% O2 ; 5% CO2) Krebs-Haenseleit buffer (pH 7.4). The tissue is allowed to stabilize over 1 hour. Individual contractions are recorded with a force-displacement transducer through a strain gauge coupler. A control dose-response curve to histamine in the above described tissue bath is obtained after which the tissue is washed 3 times and allowed to re-equilibrate to basal rate. The test compound is added to the tissue bath at the desired final concentration. Thirty minutes after addition of the compound, a fresh histamine dose response curve is again obtained. Then the response to histamine in the presence of antagonist is compared to the histamine control response. This procedure is repeated, using fresh tissues, for each concentration of antagonist tested. […] Cimetidine is used as the standard for this test.
The mark [4] stands for this setting: 30 min after addition, results of three experiments, read-out: pA2 Value (apparent dissociation constant of the H2 antagonist) (converted).
[5] abbreviates: marked *, result of only one experiment, read-out: KB value.

Structures can show the parent of a compound that is named as a salt. Where two headings read alike, the source gives them in different places.

H2 histamine receptors, sequence (P47747 whole entry): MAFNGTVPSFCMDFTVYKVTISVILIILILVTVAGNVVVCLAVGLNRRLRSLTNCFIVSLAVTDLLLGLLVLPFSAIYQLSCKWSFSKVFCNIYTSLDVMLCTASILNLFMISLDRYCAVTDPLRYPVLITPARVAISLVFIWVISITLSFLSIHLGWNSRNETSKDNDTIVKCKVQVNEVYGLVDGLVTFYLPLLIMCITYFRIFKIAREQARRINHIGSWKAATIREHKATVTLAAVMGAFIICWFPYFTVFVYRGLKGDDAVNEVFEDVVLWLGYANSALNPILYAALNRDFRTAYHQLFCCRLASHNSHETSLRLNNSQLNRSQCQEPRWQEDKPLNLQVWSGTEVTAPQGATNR

`CN(C)Cc1ccc(CSCCNC2=NS(=O)(=O)c3ccccc32)o1` [Example 1, N-[2-[[[5-[(dimethylamino)methyl]2-furanyl]methyl]thio]ethyl]-1,2-benzisothiazol-3-amine 1,1-dioxide]: in test [1], the ED50 came to 0.8 mg/kg. Besides, in test [2], the inhibition in vivo at 4 mg/kg came out at 79%. Besides, the Kb in test [3] (setting [4]) is 100 nM.

As to `O=S1(=O)N=C(NCCCOc2cccc(CN3CCOCC3)c2)c2ccccc21` [Example 16, N-[3-[3-(4-morpholinylmethyl)phenoxy]propyl]-1,2-benzisothiazol-3-amine 1,1-dioxide, hydrochloride], the inhibition in vivo at 32 mg/kg in test [2] came out at 39%. Also, the “pA2 Value (apparent dissociation constant of the H2 antagonist)” value in test [3] (30 min after addition, results of three experiments) was below 7.0.

As for `CCCN(CCC)Cc1cccc(OCCCNC2=NS(=O)(=O)c3ccccc32)c1.Cl` [Example 18, N-[3-[3-[(dipropylamino)methyl]phenoxy]propyl]-1,2-benzisothiazol-3-amine 1,1-dioxide, hydrochloride], the ED50 in test [1] was found to be 1.2 mg/kg. Further, in test [2], the inhibition in vivo at 8 mg/kg stood at 67%, the inhibition in vivo at 16 mg/kg was 89% and the inhibition in vivo at 32 mg/kg was determined as 90%. The Kb in test [3] (setting [4]) was 15.8 nM.

Turning to `CCN(CC)Cc1cccc(OCCCNC2=NS(=O)(=O)c3ccccc32)c1` [Example 19, N-[3-[3-[(diethylamino)methyl]phenoxy]propyl]-1,2-benzisothiazol-3-amine 1 ,1-dioxide, hydrochloride], in test [2], the inhibition in vivo at 16 mg/kg came out at 52% and the inhibition in vivo at 32 mg/kg was 78%. In addition, in test [3] (setting [4]), the Kb was 200 nM.

In the case of `O=S1(=O)N=C(NCCCOc2cccc(CN3CCCC3)c2)c2ccccc21` [Example 20, N-[3-[3-(1-pyrrolidinylmethyl)phenoxy]propyl]-1,2-benzisothiazol-3-amine 1 ,1-dioxide, hydrochloride, 1/3 hydrate], the ED50 in test [1] turned out to be 1.4 mg/kg. The inhibition in vivo at 2 mg/kg in test [2] (Dose 2 mg/kg) came out at 50%. In addition, the Kb in test [3] (setting [4]) is 25.1 nM.

On to `CN(C)Cc1cccc(OCCCNC2=NS(=O)(=O)c3ccccc32)c1` [Example 21, N-[3-[3-[(dimethylamino)methyl]phenoxy]propyl]-1,2-benzisothiazol-3-amine 1,1-dioxide, hydrochloride, hemihydrate], for which the inhibition in vivo at 32 mg/kg in test [2] worked out at 72%. Also, in test [3] (setting [4]), the Kb is 79.4 nM.

Take `CCCCN(CCCC)Cc1cccc(OCCCNC2=NS(=O)(=O)c3ccccc32)c1` [Example 22, N-[3-[3-[(dibutylamino)methyl]phenoxy]propyl]-1,2-benzisothiazol-3-amine 1 ,1-dioxide, hydrochloride, hemihydrate]: in test [2], the inhibition in vivo at 4 mg/kg was determined as 42%, the inhibition in vivo at 8 mg/kg was determined as 62%, the inhibition in vivo at 16 mg/kg was determined as 53% and the inhibition in vivo at 32 mg/kg was 68%. Besides, the Kb in test [3] (setting [4]) is 6.31 nM.

On to `Cl.O=S1(=O)N=C(NCCCOc2cccc(CN3CCCCCC3)c2)c2ccccc21` [Example 24, N-[3-[3-[(hexahydro-1H-azepin-1-yl)methyl]phenoxy]-propyl]-1,2-benzisothiazol-3-amine 1,1-dioxide, hydrochloride], for which the ED50 in test [1] turned out to be 1.2 mg/kg. Besides, the inhibition in vivo at 8 mg/kg in test [2] was 50%. Moreover, the Kb in test [3] (setting [4]) is 5.75 nM.

Take `O=S1(=O)N=C(NCCCOc2cccc(CN3CCSC3)c2)c2ccccc21` [Example 25, N-[3-[3-[(3-thiazolidinyl)methyl]phenoxy]propyl]-1,2-benzisothiazol-3-amine 1,1-dioxide, hydrochloride]: the inhibition in vivo at 4 mg/kg in test [2] came out at 48%. Also, in test [3] (setting [4]), the Kb was 40.7 nM.

For `O=S1(=O)N=C(NCCCOc2cccc(CNC3CCCC3)c2)c2ccccc21` [Example 28, N-[3-[3-[(cyclopentylamino)methyl]phenoxy]propyl]-1,2-benzisothiazol-3-amine 1,1-dioxide, hydrochloride], in test [2], the inhibition in vivo at 16 mg/kg was 75% and the inhibition in vivo at 32 mg/kg amounted to 49%. Also, the Kb in test [3] (setting [4]) is 25.1 nM.

As to `O=S1(=O)N=C(NCCCOc2cccc(CNCc3ccco3)c2)c2ccccc21` [Example 29, N-[3-[3-[[[(2-furanyl)methyl]amino]methyl]phenoxy]-propyl]-1,2-benzisothiazol-3amine 1,1-dioxide, hydrochloride], the inhibition in vivo at 32 mg/kg in test [2] was 50%. Besides, the Kb in test [3] (setting [4]) is 69.2 nM.

As to `O=S1(=O)N=C(NCCCOc2cccc(CNCc3ccccc3)c2)c2ccccc21` [Example 30, N-[3-[3-[(benzylamino)methyl]phenoxy]propyl]-1,2-benzisothiazol-3-amine1,1-dioxide, hydrochloride, quarter hydrate], the Kb in test [3] (setting [4]) was 63.1 nM.

On to `CC(C)CN(Cc1cccc(OCCCNC2=NS(=O)(=O)c3ccccc32)c1)CC(C)C` [Example 31, N-[3-[3-[[bis(2-methylpropyl)amino]methyl]phenoxy]-propyl]-1,2-benzisothiazol-3-amine 1,1-dioxide], for which the Kb in test [3] (setting [4]) is 63.1 nM.

Consider `CCCCNCc1cccc(OCCCNC2=NS(=O)(=O)c3ccccc32)c1` [Example 32, N-[3-[3-[(butylamino)methyl]phenoxy]propyl]-1,2-benzisothiazol-3-amine 1,1-dioxide, hydrochloride, hemihydrate], for which the Kb in test [3] (setting [4]) was 63.1 nM.

For the molecule `CCCCCN(C)Cc1cccc(OCCCNC2=NS(=O)(=O)c3ccccc32)c1` [Example 34, N-[3-[3-[(methylpentylamino)methyl]phenoxy]propyl]-1,2-benzisothiazol-3-amine 1,1-dioxide], in test [3] (setting [4]), the Kb is 10 nM.

In the case of `CCCCN(CCC)Cc1cccc(OCCCNC2=NS(=O)(=O)c3ccccc32)c1` [Example 35, N-[3-[3-[(butylpropylamino)methyl]phenoxy]propyl]-1,2-benzisothiazol-3-amine 1,1-dioxide], in test [2], the inhibition in vivo at 32 mg/kg is 55%. The Kb in test [3] (setting [5]) was found to be 14 nM.

Take `CCCCN(C)Cc1cccc(OCCCNC2=NS(=O)(=O)c3ccccc32)c1` [Example 36, N-[3-[3-[(butylmethylamino)methyl]phenoxy]propyl]-1,2-benzisothiazol-3-amine 1,1-dioxide]: in test [2], the inhibition in vivo at 32 mg/kg was 84%. Besides, the Kb in test [3] (setting [5]) worked out at 48 nM.

Consider `CCCCCN(CCCCC)Cc1cccc(OCCCNC2=NS(=O)(=O)c3ccccc32)c1` [Example 37, N-[3-[3-[(dipentylamino)methyl]phenoxy]propyl]-1,2-benzisothiazol-3-amine 1,1-dioxide], for which the inhibition in vivo at 32 mg/kg in test [2] stood at 38%.

`CN(C)Cc1ccc(CSCCNC2=NS(=O)(=O)c3cscc32)o1` [Example 39, N-[2-[[[5-[(Dimethylamino)Methyl]-2-Furanyl]Methyl]Thio]Ethyl]Thieno[3,4-d]Isothiazol-3-Amine-1,1-Dioxide]: the inhibition in vivo at 16 mg/kg in test [2] came out at 87%. In test [3] (setting [5]), the Kb came to 1 nM.

Take `NC(N)=Nc1nc(CSCCNC2=NS(=O)(=O)c3cscc32)cs1` [Example 40, [4-[[[2-[(Thieno[3,4-d]Isothiazol-3-yl)Amino]Ethyl]Thio]Methyl]-2-Thiazolyl]Guanidine-S',S'-Dioxide]: in test [3] (setting [5]), the Kb stood at 100 nM.

On to `CNC(=C[N+](=O)[O-])NCCSCc1ccc(CN(C)C)o1` [ranitidine, reference compound], for which, in test [1], the ED50 came out at 2.3 mg/kg. For the same molecule, the inhibition in vivo at 4 mg/kg in test [2] was 43%.

Take `CNC(=NC#N)NCCSCc1csc(N=C(N)N)n1` [tiotidine, reference compound]: in test [2], the inhibition in vivo at 4 mg/kg came to 16%.
